For the first experiment, the target named is Trx-6×His-BCL6 (human BCL6 BTB domain covering amino-acid sequence 5-129) (Homo sapiens (Human), UniProt P41182). In words: HTRF in vitro assay (BCL6 / BCOR-AF633 peptide). It counts as binding. Particulars: further generated data; 1 nM Trx-6×His-BCL6, 300 nM BCOR-AF633 peptide, 0.5 nM anti-6×His-Terbium cryptate. The protocol: The % inhibition at each concentration was calculated by normalising FRET ratio to the appropriate high (DMSO with all reagents) and low (DMSO without BCL6) controls.
Turning to `Cn1c(=O)n(CC2C[C@H](F)CN2CC(F)(F)F)c2cc(Nc3ccnc(Cl)c3C#N)ccc21` (stereo in doubt) [Example 25h, 2-chloro-4-((3-(((2R,4S)-4-fluoro-1-(2,2,2-trifluoroethyl)pyrrolidin-2-yl)methyl)-1-methyl-2-oxo-2,3-dihydro-1H-benzo[d]imidazol-5-yl)amino)nicotinonitrile], the “HTRF pIC50” value was 5.55.

The experiment is the same for the next values; noted with them: result in words.
As for `Cn1c(=O)n(C)c2cc(Nc3ccncc3C(F)(F)F)ccc21` [1,3-dimethyl-5-((3-(trifluoromethyl)pyridin-4-yl)amino)-1,3-dihydro-2H-benzo[d]imidazol-2-one], the “activity in the HTRF assay” value is given as “did not exhibit the desired activity”. Regarding `Cn1c(=O)n(C)c2cc(Nc3cc(C(F)(F)F)nc4ncnn34)ccc21` [1,3-dimethyl-5-((5-(trifluoromethyl)-[1,2,4]triazolo[1,5-a]pyrimidin-7-yl)amino)-1,3-dihydro-2H-benzo[d]imidazol-2-one], the “activity in the HTRF assay” value was “did not exhibit the desired activity”. In the case of `Cc1cncnc1Nc1ccc2c(c1)n(C)c(=O)n2C` [1,3-dimethyl-5-((5-methylpyrimidin-4-yl)amino)-1,3-dihydro-2H-benzo[d]imidazol-2-one], the “activity in the HTRF assay” value is “did not exhibit the desired activity”.

Consider `Cn1c(=O)n(CCc2ccccc2)c2cc(Nc3ccnc4ccnn34)ccc21` [1-methyl-3-phenethyl-5-(pyrazolo[1,5-a]pyrimidin-7-ylamino)-1,3-dihydro-2H-benzo[d]imidazol-2-one], for which the “activity in the HTRF assay” value is reported as “did not exhibit the desired activity”.

In the case of `Cn1c(=O)n(CC2CCOCC2)c2cc(Nc3ccnc(Cl)c3C#N)ccc21` [2-chloro-4-((1-methyl-2-oxo-3-((tetrahydro-2H-pyran-4-yl)methyl)-2,3-dihydro-1H-benzo[d]imidazol-5-yl)amino)nicotinonitrile], the “activity in the HTRF assay” value was “did not exhibit the desired activity”. Take `Cn1c(=O)n(CC2CCCNC2)c2cc(Nc3ccnc(Cl)c3C#N)ccc21` (centres unmarked) [2-chloro-4-((1-methyl-2-oxo-3-(piperidin-3-ylmethyl)-2,3-dihydro-1H-benzo[d]imidazol-5-yl)amino)nicotinonitrile]: the “activity in the HTRF assay” value is “did not exhibit the desired activity”. On the same count and under the same terms, the same measure for `Cn1c(=O)n(CC2CCNCC2)c2cc(Nc3ccnc(Cl)c3C#N)ccc21` [2-chloro-4-((1-methyl-2-oxo-3-(piperidin-4-ylmethyl)-2,3-dihydro-1H-benzo[d]imidazol-5-yl)amino)nicotinonitrile]: “did not exhibit the desired activity”. Same read-out and setting: the same measure for `Cn1c(=O)n(CCN2CCOCC2)c2cc(Nc3ccnc(Cl)c3C#N)ccc21` [2-chloro-4-((1-methyl-3-(2-morpholinoethyl)-2-oxo-2,3-dihydro-1H-benzo[d]imidazol-5-yl)amino)nicotinonitrile]: “did not exhibit the desired activity”; for `CCN(CC)CCn1c(=O)n(C)c2ccc(Nc3ccnc(Cl)c3C#N)cc21` [2-chloro-4-((3-(2-(diethylamino)ethyl)-1-methyl-2-oxo-2,3-dihydro-1H-benzo[d]imidazol-5-yl)amino)nicotinonitrile]: “did not exhibit the desired activity”; for `CCC(C)(O)Cn1c(=O)n(C)c2ccc(Nc3ccnc(Cl)c3C#N)cc21` (centres unmarked) [2-chloro-4-((3-(2-hydroxy-2-methylbutyl)-1-methyl-2-oxo-2,3-dihydro-1H-benzo[d]imidazol-5-yl)amino)nicotinonitrile]: “did not exhibit the desired activity”. Still for that read-out and setting: as for `Cn1c(=O)n(CC(O)C(C)(C)C)c2cc(Nc3ccnc(Cl)c3C#N)ccc21` (centres unmarked) [2-chloro-4-((3-(2-hydroxy-3,3-dimethylbutyl)-1-methyl-2-oxo-2,3-dihydro-1H-benzo[d]imidazol-5-yl)amino)nicotinonitrile], the entry is “did not exhibit the desired activity”; as for `Cn1c(=O)n(CC2CCOC2(C)C)c2cc(Nc3ccnc(Cl)c3C#N)ccc21` (centres unmarked) [2-chloro-4-((3-((2,2-dimethyltetrahydrofuran-3-yl)methyl)-1-methyl-2-oxo-2,3-dihydro-1H-benzo[d]imidazol-5-yl)amino)nicotinonitrile], “did not exhibit the desired activity”. For the compound `Cn1c(=O)n(CC2CC(C)(C)C2)c2cc(Nc3ccnc(Cl)c3C#N)ccc21` [2-chloro-4-((3-((3,3-dimethylcyclobutyl)methyl)-1-methyl-2-oxo-2,3-dihydro-1H-benzo[d]imidazol-5-yl)amino)nicotinonitrile], the “activity in the HTRF assay” value is listed as “did not exhibit the desired activity”. Turning to `Cn1c(=O)n(CC2(CO)COC2)c2cc(Nc3ccnc(Cl)c3C#N)ccc21` [2-chloro-4-((3-((3-(hydroxymethyl)oxetan-3-yl)methyl)-1-methyl-2-oxo-2,3-dihydro-1H-benzo[d]imidazol-5-yl)amino)nicotinonitrile], the “activity in the HTRF assay” value is on record as “did not exhibit the desired activity”. On the same count and under the same terms, the same measure for `Cn1c(=O)n(CC2(C#N)CCOCC2)c2cc(Nc3ccnc(Cl)c3C#N)ccc21` [2-chloro-4-((3-((4-cyanotetrahydro-2H-pyran-4-yl)methyl)-1-methyl-2-oxo-2,3-dihydro-1H-benzo[d]imidazol-5-yl)amino)nicotinonitrile]: “did not exhibit the desired activity”. Consider `Cn1c(=O)n(C)c2cc(Nc3ccnc(C(F)(F)F)c3C#N)ccc21` [4-((1,3-dimethyl-2-oxo-2,3-dihydro-1H-benzo[d]imidazol-5-yl)amino)-2-(trifluoromethyl)nicotinonitrile], for which the “activity in the HTRF assay” value is reported as “did not exhibit the desired activity”. The same measure, in the same setting: as for `Cc1nccc(Nc2ccc3c(c2)n(C)c(=O)n3C)c1C#N` [4-((1,3-dimethyl-2-oxo-2,3-dihydro-1H-benzo[d]imidazol-5-yl)amino)-2-methylnicotinonitrile], the entry is “did not exhibit the desired activity”. Take `Cn1c(=O)n(C)c2cc(Nc3ncncc3C#N)ccc21` [4-((1,3-dimethyl-2-oxo-2,3-dihydro-1H-benzo[d]imidazol-5-yl)amino)pyrimidine-5-carbonitrile]: the “activity in the HTRF assay” value is recorded as “did not exhibit the desired activity”. The same measure, in the same setting: as for `Cn1c(=O)n(CC2CCN2)c2cc(Nc3ccnc(Cl)c3C#N)ccc21` (centres unmarked) [4-((3-(azetidin-2-ylmethyl)-1-methyl-2-oxo-2,3-dihydro-1H-benzo[d]imidazol-5-yl)amino)-2-chloronicotinonitrile], the entry is “did not exhibit the desired activity”; as for `Cn1c(=O)n(CCC(C)(O)CCO)c2cc(Nc3nc(Cl)ncc3Cl)ccc21` (centres unmarked) [5-((2,5-dichloropyrimidin-4-yl)amino)-3-(3,5-dihydroxy-3-methylpentyl)-1-methyl-1,3-dihydro-2H-benzo[d]imidazol-2-one], “did not exhibit the desired activity”; as for `Cn1c(=O)n(CCC(C)(C)O)c2cc(Nc3ccnc(Cl)c3C(F)F)ccc21` [5-((2-chloro-3-(difluoromethyl)pyridin-4-yl)amino)-3-(3-hydroxy-3-methylbutyl)-1-methyl-1,3-dihydro-2H-benzo[d]imidazol-2-one], “did not exhibit the desired activity”. As to `Cn1c(=O)n(CCC(C)(C)O)c2cc(Nc3ccnc(Cl)c3C(F)(F)F)ccc21` [5-((2-chloro-3-(trifluoromethyl)pyridin-4-yl)amino)-3-(3-hydroxy-3-methylbutyl)-1-methyl-1,3-dihydro-2H-benzo[d]imidazol-2-one], the “activity in the HTRF assay” value is listed as “did not exhibit the desired activity”.

Values taken from patent US12110286B2, “Benzimidazolone derived inhibitors of BCL6” (Cancer Research Technology Limited, priority 2017, dated 2024).
